Counter-ions that a name gives are not always drawn. Like-named read-outs stand apart in the source and are kept apart here.
Experiments:
[1] = test system: VSV*ΔG(Luc)-S virus (SARS-CoV-2 spike, D614G); conditions: for EC50: read-out: EC50 Vero E6
[2] = test system: VSV*ΔG(Luc)-S virus (SARS-CoV-2 spike, D614G); conditions: for EC50: read-out: EC50 HLT

## COc1ccc2cc1Oc1ccc(cc1)C[C@H]1c3c(cc4c(c3Oc3cc5c(cc3OC)CCN(C)[C@@H]5C2)OCO4)CCN1C [Cepharanthine]
[1]
  SI VeroE6 (CC50/EC50): 48.47
[2]
  SI HLT (CC50/EC50): 2.64

## O=c1c(O)c(-c2ccc(O)c(O)c2)oc2cc(O)cc(O)c12 [Quercetin]
[1]
  viral entry in VeroE6 cells (in words): some viral entry suppression
  EC50: > 100 µM

## Cc1cc(O)c2c(=O)c3c(O)cc(O)c4c5c(O)cc(O)c6c(=O)c7c(O)cc(C)c8c1c2c(c34)c(c78)c65 [Hypericin]
[1]
  EC50: 1.24 µM
[2]
  EC50: 0.31 µM

## CN(C)C(=N)N=C(N)N [Metformin]
[1]
  EC50 Vero E6: No effect
[2]
  EC50 HLT: No effect

## Oc1ccc(CC2NCCc3cc(O)c(O)cc32)cc1 (stereo not shown) [Higenamine, Higenamine hydrochloride]
[1]
  EC50 Vero E6: No effect
[2]
  EC50 HLT: No effect

## CC1(C)Cc2c(-c3ccccc3)c(-c3ccc(Cl)cc3)c(CC(=O)O)n2C1 [Licofelone]
[2]
  EC50: 32.2 µM

## Cc1ccc(-c2cc(C(F)(F)F)nn2-c2ccc(S(N)(=O)=O)cc2)cc1 [Celecoxib]
[1]
  EC50: 13 µM
[2]
  EC50: 55.7 µM

## Nc1ncnc2c1ncn2[C@@H]1O[C@H](CO)[C@@H](O)[C@@H]1O [Vidarabine]
[1]
  EC50: > 100 µM
[2]
  EC50: 51.6 µM

## Cc1ccnc(NS(=O)(=O)c2ccc(N)cc2)n1 [Sulfamerazine]
[1]
  EC50 Vero E6: No effect
[2]
  EC50 HLT: No effect

## Ivermectin
[1]
  SI VeroE6 (CC50/EC50): 1.4
  EC50: 13.9 µM
[2]
  SI HLT (CC50/EC50): 7.75
  viral entry in HLT cells (in words): effective antiviral
  EC50: 13 µM

## CC(C)C(=O)OCC(=O)[C@@]12O[C@H](C3CCCCC3)O[C@@H]1C[C@H]1[C@@H]3CCC4=CC(=O)C=C[C@]4(C)[C@H]3[C@@H](O)C[C@@]12C [Ciclesonide]
[1]
  EC50: 20.5 µM
[2]
  EC50: 16.4 µM

## O=c1c(O)c(-c2cc(O)c(O)c(O)c2)oc2cc(O)cc(O)c12 [Myricetin]
[1]
  EC50 Vero E6: No effect
[2]
  EC50 HLT: No effect

## recombinant protein AXL
[2]
  viral entry in HLT cells with entry-factor blockers (in words): inhibited SARS-CoV-2 entry

## O=C1CN(/N=C/c2ccc([N+](=O)[O-])o2)C(=O)N1 [Nitrofurantoin]
[1]
  EC50 Vero E6: No effect
[2]
  EC50 HLT: No effect

## CCCCCCCCCCCC(=O)OCC(O)CO (stereo not shown) [Monolaurin]
[1]
  EC50 Vero E6: No effect
[2]
  EC50 HLT: No effect

## C[C@@H]1C[C@H]2[C@@H]3CCC4=CC(=O)C=C[C@]4(C)[C@@]3(F)[C@@H](O)C[C@]2(C)[C@@]1(O)C(=O)CO [Dexamethasone]
[1]
  EC50 Vero E6: No effect
  viral entry in VeroE6 cells (in words): without any apparent impact
[2]
  EC50 HLT: No effect

## CC1(C)[C@@H](O[C@H]2O[C@H](C(=O)O)[C@@H](O)[C@H](O)[C@H]2O[C@@H]2O[C@H](C(=O)O)[C@@H](O)[C@H](O)[C@H]2O)CC[C@]2(C)[C@H]3C(=O)C=C4[C@@H]5C[C@@](C)(C(=O)O)CC[C@]5(C)CC[C@@]4(C)[C@]3(C)CC[C@@H]12 [Glycyrrhizin]
[1]
  EC50 Vero E6: No effect
[2]
  EC50 HLT: No effect

## Cc1cccn2c(=O)c(-c3nnn[nH]3)cnc12 [Pemirolast, Pemirolast potassium]
[1]
  EC50 Vero E6: No effect
[2]
  EC50 HLT: No effect

## C[C@H](O)[C@H](O)[C@H]1CNc2nc(N)[nH]c(=O)c2N1 [Tetrahydrobiopterin, Tetrahydrobiopterin dihydrochloride]
[1]
  EC50 Vero E6: No effect
[2]
  EC50 HLT: No effect

## N[C@@H](CC(=O)N1CCn2c(nnc2C(F)(F)F)C1)Cc1cc(F)c(F)cc1F [Sitagliptin]
[1]
  EC50 Vero E6: No effect
[2]
  EC50 HLT: No effect

## Cc1cc(NS(=O)(=O)c2ccc(N)cc2)no1 [Sulfamethoxazole]
[1]
  EC50 Vero E6: No effect
[2]
  EC50 HLT: No effect

## O=C1C[C@@H](c2ccc(O)c(O)c2)Oc2cc(O)cc(O)c21 [Eriodictyol]
[2]
  viral entry in HLT cells (in words): certain activity
  EC50: 90 µM

## Ergoloid mesylates
[1]
  SI VeroE6 (CC50/EC50): 3.9
  EC50: 4.78 µM
[2]
  SI HLT (CC50/EC50): 11.38
  viral entry inhibition in HLT cells: ~ 90%
  EC50: 9.17 µM

## CN(C)C(=O)COC(=O)Cc1ccc(OC(=O)c2ccc(NC(=N)N)cc2)cc1 [Camostat, Camostat mesylate]
[2]
  viral entry in HLT cells with entry-factor blockers (in words): significantly inhibited viral entry

## CCCCCCCCCCCC(=O)O [Lauric acid]
[1]
  EC50 Vero E6: No effect
[2]
  EC50 HLT: No effect

## [H]/N=C(/N)N/C(=N/[H])NCCc1ccccc1 [Phenformin]
[2]
  viral entry in HLT cells (in words): significantly reduced viral entry
  EC50: 38.2 µM

## CCCCCCCCCC(=O)OCC(O)CO (stereo not shown) [Monocaprin]
[1]
  EC50 Vero E6: No effect
[2]
  EC50 HLT: No effect

## CC1=C(CC(=O)O)c2cc(F)ccc2/C1=C\c1ccc([S+](C)[O-])cc1 (stereo not shown) [Sulindac]
[1]
  EC50 Vero E6: No effect
[2]
  EC50: > 100 µM

## N#C[C@@H]1CCCN1C(=O)CNC12CC3CC(CC(O)(C3)C1)C2 [Vidagliptin, Vildagliptin]
[1]
  EC50 Vero E6: No effect
[2]
  EC50 HLT: No effect

## O=c1cc(-c2ccc(O)c(O)c2)oc2cc(O)cc(O)c12 [Luteolin]
[1]
  EC50: ~70.7 µM
[2]
  EC50: ~82.4 µM

## C[C@]12CCC(=O)C=C1CC[C@@H]1[C@@H]2[C@@H](O)C[C@@]2(C)[C@H]1CC[C@]2(O)C(=O)CO [Cortisol]
[1]
  EC50 Vero E6: No effect
[2]
  EC50 HLT: No effect

## CC(C)Cc1ccc(C(C)C(=O)O)cc1 (stereo not shown) [Ibuprofen]
[1]
  EC50 Vero E6: No effect
[2]
  EC50 HLT: No effect

## NC(=O)[C@@H]1CCCN1C(=O)[C@H](Cc1c[nH]cn1)NC(=O)[C@@H]1CCC(=O)N1 [Protilerin]
[1]
  EC50 Vero E6: No effect
[2]
  EC50 HLT: No effect

## O=C1Nc2ccccc2/C1=C1/Nc2ccccc2C1=O [Indirubin]
[1]
  EC50 Vero E6: No effect
[2]
  EC50 HLT: No effect

## CC(C)[C@H](N)C(=O)OCCOCn1cnc2c(=O)[nH]c(N)nc21 [Valaciclovir]
[2]
  viral entry in HLT cells (in words): some inhibitory potential
  EC50: > 100 µM

## C[C@]12C=CC(=O)C=C1CC[C@@H]1[C@@H]2C(=O)C[C@@]2(C)[C@H]1CC[C@]2(O)C(=O)CO [Prednisone]
[1]
  EC50 Vero E6: No effect
  viral entry in VeroE6 cells (in words): without any apparent impact
[2]
  EC50 HLT: Some effect
  viral entry in HLT cells (in words): partial reduction of viral entry

## C[C@]1(Cn2ccnn2)[C@H](C(=O)O)N2C(=O)C[C@H]2S1(=O)=O [Tazobactam]
[1]
  EC50 Vero E6: No effect
[2]
  EC50 HLT: No effect

## CCCCCCCCCCCCOS(=O)(=O)[O-].[Na+] [SLS, Sodium lauryl sulfate]
[1]
  EC50: ~26.4 µM
[2]
  EC50: > 100 µM

Reference: article PMC8791477, “Evaluation of SARS-CoV-2 entry, inflammation and new therapeutics in human lung tissue cells” (PLoS Pathogens, 2022)
